Test results from patent US10227331B2 (priority 2015, dated 2019).

What was measured:
[1] = biological target: IMP-1 (Serratia marcescens, UniProt P52699); assay: biochemical; format: biochemical; conditions: CCF2-FA substrate, 2 hours at 25° C; read-out: IMP-1 IC50
Method in brief: (§1)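 Semi-log dose-response curves, fitted with a 4-parameter model, gave IC50s. The underlying signal was CCF2-FA fluorescence following 2 hours at 25° C with enzyme, substrate and inhibitor combined.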

[2] = biological target: NDM-1 (Klebsiella pneumoniae, UniProt C7C422); assay: biochemical; format: biochemical; conditions: CCF2-FA substrate, 2 hours at 25° C; read-out: NDM-1 IC50
Chain of NDM-1 (C7C422 whole entry, looked up, species assumed): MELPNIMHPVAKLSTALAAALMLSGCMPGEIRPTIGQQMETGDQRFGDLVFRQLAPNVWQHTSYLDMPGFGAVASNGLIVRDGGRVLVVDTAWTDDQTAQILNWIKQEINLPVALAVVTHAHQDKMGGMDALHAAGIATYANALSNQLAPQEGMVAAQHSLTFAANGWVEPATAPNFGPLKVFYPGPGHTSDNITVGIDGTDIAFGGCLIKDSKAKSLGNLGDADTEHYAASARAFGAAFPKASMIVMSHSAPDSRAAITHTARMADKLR
Method in brief: as §1

[3] = biological target: VIM-1 (Pseudomonas aeruginosa (strain ATCC 15692 / DSM 22644 / CIP 104116 / JCM 14847 / LMG 12228 / 1C / PRS 101 / PAO1), UniProt A0A0F7KYQ8); assay: biochemical; conditions: CCF2-FA substrate, 2 hours at 25° C
Method in brief: as §1

[4] = system: Escherichia coli expressing NDM-1 (CLB30005, CLB30016); format: cell-based; conditions: with imipenem 1 μg/ml, 95% inhibition of bacterial growth; for Escherichia coli MITC95: NDM-1 (CLB30016)
Method in brief: (§2)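 Restoration of imipenem susceptibility (1 μg/ml imipenem) was judged by absorbance after 22–24 h at 35° C. Test compound was added to bacteria suspended 1:100 in 1.1× CAMHB from overnight blood-agar cultures.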

[5] = system: Klebsiella pneumoniae expressing VIM-1 (IHMA599644); format: cell-based; conditions: with imipenem 1 μg/ml, 95% inhibition of bacterial growth; for Klebsiella pneumoniae MITC95: VIM-1 (IHMA599644)
Method in brief: as §2

[6] = system: Serratia marcescens expressing IMP-1 (CL5741); format: cell-based; conditions: with imipenem 1 μg/ml, 95% inhibition of bacterial growth; for Serratia marcescens MITC95: IMP-1 (CL5741)
Method in brief: as §2

[7] = system: P. aeruginosa expressing IMP-1, efflux+ (MB9798); format: cell-based, Pseudomonas aeruginosa; conditions: for P. aeruginosa expressing IMP-1, efflux+ (MB9798) MITC95: imipenem at 2 μg/mL, in the presence of a class A, C, D serine β-lactamase inhibitor closely related to relebactam; for Efflux ratio: ratio MITC95 PA_9798/MITC95 PA_9799
Text: (§3) The strain background is Pseudomonas aeruginosa PAO1.

[8] = system: P. aeruginosa expressing IMP-1, efflux− (MB9799); assay: Efflux: concentration of MBL inhibitor which restores susceptibility to imipenem; format: cell-based, Pseudomonas aeruginosa; conditions: imipenem at 2 μg/mL, in the presence of a class A, C, D serine β-lactamase inhibitor closely related to relebactam
Text: as §3

Chain of IMP-1 (P52699 whole entry, looked up, species assumed): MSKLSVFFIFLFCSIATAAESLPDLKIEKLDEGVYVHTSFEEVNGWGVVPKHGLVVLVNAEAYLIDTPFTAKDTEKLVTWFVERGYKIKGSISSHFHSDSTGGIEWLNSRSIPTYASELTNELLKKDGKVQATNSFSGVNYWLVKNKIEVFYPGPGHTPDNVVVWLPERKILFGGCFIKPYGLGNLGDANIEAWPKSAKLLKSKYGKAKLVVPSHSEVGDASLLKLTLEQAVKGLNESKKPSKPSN

Row | Compound | IC50 [1] [nM] | IC50 [2] [nM] | IC50 [3] [nM] | Escherichia coli MITC95 [4] [µM] | Klebsiella pneumoniae MITC95 [5] [µM] | Serratia marcescens MITC95 [6] [µM] | P. aeruginosa expressing IMP-1, efflux+ (MB9798) MITC95 [7] [µM] | Efflux ratio [7] | P. aeruginosa expressing IMP-1, efflux− (MB9799) MITC95 [8] [µM] | Escherichia coli expressing NDM-1 (CLB30016) MITC95 [4] [µM] | Klebsiella pneumoniae expressing VIM-1 (IHMA599644) MITC95 [5] [µM] | Serratia marcescens expressing IMP-1 (CL5741) MITC95 [6] [µM]
1 | C[C@H](N)CS(=O)(=O)c1ccc(-c2cccc3c2nc(N)n3C)c(-c2nn[nH]n2)c1S(N)(=O)=O [Example 276, 3-(2-amino-1-methyl-1H-benzo[d]imidazol-4-yl)-6-((S)-2-aminopropylsulfonyl)-2-(2H-tetrazol-5-yl)benzenesulfonamide] | 0.285 | 0.24 | 0.214 | 0.7813 | 3.125 | 0.7813 | 1.563 | 2.00 | 0.7813 | – | – | –
2 | Nc1nc2c(-c3ccc(S(=O)(=O)C[C@H](N)CO)c(S(N)(=O)=O)c3-c3nn[nH]n3)cccc2[nH]1 [Example 273, 3-(2-amino-1H-benzo[d]imidazol-4-yl)-6-((R)-2-amino-3-hydroxypropylsulfonyl)-2-(2H-tetrazol-5-yl)benzenesulfonamide] | 0.709 | 0.147 | 0.254 | 0.3906 | 1.563 | 1.563 | 0.7813 | 1.00 | 0.7813 | – | – | –
3 | Nc1n[nH]c2cc(-c3ccc(S(=O)(=O)C4CNC4)c(S(N)(=O)=O)c3-c3nn[nH]n3)ccc12 [Example 20] | 1.19 | 0.291 | 0.168 | – | – | – | 3.125 | 2.00 | 1.563 | 3.125 | 3.125 | 1.563
4 | NS(=O)(=O)c1c(SC2CNC2)ccc(-c2ccc(C3CCNCC3)cc2)c1-c1nn[nH]n1 [Example 4, 4-(Azetidin-3-ylthio)-4′-(piperidin-4-yl)-2-(2H-tetrazol-5-yl)-[1,1′-biphenyl]-3-sulfonamide] | 15.1 | 11.5 | 53.5 | – | – | – | 1.563 | 4.00 | 0.3906 | 0.7813 | 3.125 | 1.563
5 | C[C@@H](N)CS(=O)(=O)c1ccc(-c2cccc3sc(N)nc23)c(-c2nn[nH]n2)c1S(N)(=O)=O [Example 268, 3-(2-aminobenzo[d]thiazol-4-yl)-6-((R)-2-aminopropylsulfonyl)-2-(2H-tetrazol-5-yl)benzenesulfonamide] | 0.363 | 0.177 | 0.329 | 1.563 | 3.125 | 1.563 | 1.563 | 1.00 | 1.563 | – | – | –
6 | N[C@H](CO)CS(=O)(=O)c1ccc(-c2cccc3[nH]cnc23)c(-c2nn[nH]n2)c1S(N)(=O)=O [Example 356, (R)-6-((2-amino-3-hydroxypropyl)sulfonyl)-3-(1H-benzo[d]imidazol-4-yl)-2-(2H-tetrazol-5-yl) benzenesulfonamide] | 0.496 | 0.27 | 0.344 | 1.563 | 3.125 | 1.563 | 1.563 | 1.00 | 1.563 | – | – | –
7 | NCCS(=O)(=O)c1ccc(-c2cccc3c2nc(N)n3CC(F)(F)F)c(-c2nn[nH]n2)c1S(N)(=O)=O [Example 18, 3-(2-Amino-1-(2,2,2-trifluoroethyl)-1H-benzo[d]imidazol-4-yl)-6-((2-aminoethyl)sulfonyl)-2-(2H-tetrazol-5-yl)benzenesulfonamide] | 0.227 | 0.442 | 0.361 | – | – | – | 3.125 | 2.00 | 1.563 | 1.563 | 3.125 | 3.125
8 | Cc1ccc(-c2ccc(S(=O)(=O)CCN)c(S(N)(=O)=O)c2-c2nn[nH]n2)c2nc(N)sc12 [Example 80, 3-(2-amino-7-methylbenzo[d]thiazol-4-yl)-6-(2-aminoethylsulfonyl)-2-(2H-tetrazol-5-yl)benzenesulfonamide] | 0.085 | 0.0508 | 0.11 | – | – | – | 0.7813 | 1.00 | 0.7813 | 1.172 | 1.563 | 0.7813
9 | NS(=O)(=O)c1c(S(=O)(=O)C2CNC2)ccc(C2CCOCC2)c1-c1nn[nH]n1 [Example 222, 6-(azetidin-3-ylsulfonyl)-3-(tetrahydro-2H-pyran-4-yl)-2-(2H-tetrazol-5-yl)benzenesulfonamide] | 4.3 | 1.49 | 2.45 | – | – | – | 100 | 63.98 | 1.563 | 3.125 | 3.125 | 3.125
10 | NS(=O)(=O)c1c(S(=O)(=O)C2CNC2)ccc(-c2ccc3cn[nH]c3c2)c1-c1nnn[nH]1.O=C(O)C(F)(F)F [Example 127, 3-((4-(1H-indazol-6-yl)-2-sulfamoyl-3-(1H-tetrazol-5-yl)phenyl)sulfonyl)azetidin-1-ium 2,2,2-trifluoroacetate] | 3.01 | 0.429 | 0.428 | – | – | – | 25 | 15.99 | 1.563 | 0.7813 | 3.125 | 3.125
11 | NC[C@@H](O)CS(=O)(=O)c1ccc(-c2cccc3sc(N)nc23)c(-c2nn[nH]n2)c1S(N)(=O)=O [Example 352, (R)-6-((3-amino-2-hydroxypropyl)sulfonyl)-3-(2-aminobenzo[d]thiazol-4-yl)-2-(2H-tetrazol-5-yl) benzenesulfonamide] | 0.145 | 0.0658 | 0.255 | 0.7813 | 1.563 | 0.7813 | 0.3906 | – | 0.7813 | – | – | –
